Reference: a melting point compilation (Tetko et al.)
Residues, ends and D or L forms follow the SMILES beside them. *: point of attachment. Cyclohexanecarbonyl = O=C(C1CCCCC1)*; Boc = CC(C)(C)OC(=O)*; Bn = c1ccc(C*)cc1

Row | melting point [°C] | SMILES
1 | 180 to 185 | CC(NC(=O)C(Cc1ccc(OCc2ccccc2)cc1)NC(=O)C(COCc1ccccc1)NC(=O)C(Cc1c[nH]c2ccccc12)NC(=O)OC(C)(C)C)C(N)=O (configuration not stated) (Boc-WS(Bn)Y(Bn)A-NH2; configuration not given here)
2 | 166 to 167 | COC(=O)c1ccccc1CN1C(=O)C2(COc3cc4c(cc32)OCO4)c2ccccc21 (configuration not stated)
3 | 129 to 131 | CCCCCCCCOc1ccc(NS(=O)(=O)c2cc(C(C)(C)CC(C)(C)C)ccc2OCCCCCCCC)cc1S(=O)(=O)NCC(C)c1nn2nc(C)c(Cl)c2[nH]1 (configuration not stated)
4 | 127 to 129 | CCOC(=O)COc1cccc2c1CCc1sc(S(=O)CC(c3ccccc3)c3ccccc3)nc1-2 (configuration not stated)
5 | 195 | COc1ccc(C(CCCC(C(=O)C(CCCC(c2ccc(OC)c(OC)c2)N2C(=O)c3ccccc3C2=O)N2C(=O)c3ccccc3C2=O)N2C(=O)c3ccccc3C2=O)N2C(=O)c3ccccc3C2=O)cc1OC (configuration not stated)
6 | 181 to 190 | C=CC1=C(C)c2cc3[nH]c(cc4nc(cc5[nH]c(cc1n2)c(C)c5CCC(=O)OC(CN(C)C)CN(C)C)C(CCC(=O)OC(CN(C)C)CN(C)C)=C4C)c(C)c3C=C
7 | 106 to 109 | O=C(Oc1ccc2c(OC(=O)c3ccc(OCc4ccccc4)c(Cl)c3)c3ccccc3cc2c1OC(=O)c1ccc(OCc2ccccc2)c(Cl)c1)c1ccc(OCc2ccccc2)c(Cl)c1
8 | 105 | CC(C)(C)OC(=O)NC(Cc1cc(I)c(Oc2cc(I)c(OCC3CO3)c(I)c2)c(I)c1)C(=O)OCC1CO1 (configuration not stated)
9 | 119 to 127 | CC(=O)Nc1cc(N2CCN(Cc3ccccc3)CC2)ccc1OCC(=O)N[C@@H](CC(N)=O)C(=O)N[C@@H](Cc1ccccc1)[C@H](O)C(=O)N1CCC[C@H]1C(=O)NC(C)(C)C
10 | 107 to 109 | [C-]#[N+]Cc1c(OC)cc(OC)cc1OC
11 | 151 to 152 | CCCCCCCCCCCCS(=O)(=O)Nc1cc(C(=O)Nc2ccc(Cl)c(Cl)c2)ccc1OC
12 | 74 to 76 | C=CCOc1ccc(C[C@H](NC(=O)OC(C)(C)C)C(=O)N[C@H](C(=O)OC)C(C)C)cc1
13 | 220 to 223 | COc1cc(OC)c(/C=C/C(c2ccc(OC)c(NC(C)=O)c2)S(=O)(=O)C(/C=C/c2c(OC)cc(OC)cc2OC)c2ccc(OC)c(NC(C)=O)c2)c(OC)c1 (configuration not stated)
14 | 57 to 60 | CCOC(=O)c1cnc2snc(C)c2c1N(C)S(=O)(=O)c1ccc(Oc2ccncc2)cc1
15 | 158 to 160 | Cc1ccc(C(=O)OCCN(C)C)cc1-n1c(C)cc(OCc2ccc(F)cc2CNC(=O)Nc2cc(C(C)(C)C)nn2-c2cccc(OCCO)c2)c(Cl)c1=O
16 | 109 to 111 | CC(C)[C@H](NC(=O)N(C)Cc1ccccn1)C(=O)N[C@@H](Cc1ccccc1)C[C@H](OC(=O)CN(C)C)[C@H](Cc1ccccc1)NC(=O)[C@@H](NC(=O)N(C)Cc1ccccn1)C(C)C
17 | 160 to 165 | CCOC(=O)C(C)OC(=O)c1c(I)c(NC(C)=O)c(I)c(C(=O)OC(C)C(=O)OCC)c1I (configuration not stated)
18 | 96 | CC(=O)ON=NCc1ccc(C(=O)NCCCNC(=O)[C@@H]2CCCN2S(=O)(=O)c2ccc(Cl)c(COc3cccc4c(-n5ccnc5)cc(C)nc34)c2Cl)cc1
19 | 139 to 141 | CCOc1cc(C(=O)N2CCC(CCN3CCC(C(=O)c4nc5ccccc5n4Cc4ccc(F)cc4)CC3)(c3ccc(OC)c(OC)c3)C2)cc(OCC)c1OCC (configuration not stated)

Further lines, the molecule ahead of its results:

Row | SMILES | melting point [°C]
20 | O=C(Cc1cc(I)c(Oc2cc(I)c(OCC3CO3)c(I)c2)c(I)c1)NC1CCCCC1 (configuration not stated) | 242
21 | O=C(Cc1cc(I)c(Oc2cc(I)c(OCC3CO3)c(I)c2)c(I)c1)OCC1CO1 (configuration not stated) | 116
22 | CCCCCCCCNc1nc(NCCCCC2CC(C)(C)N(OCC(C)(C)O)C(C)(C)C2)nc(NCCCCC2CC(C)(C)N(OCC(C)(C)O)C(C)(C)C2)n1 | 68 to 86
23 | O=CCCCCCCOc1ccc(OCc2ccccc2)cc1 | 65 to 67
24 | [C-]#[N+]C1(C)Cc2ccccc2C(=C)c2ccccc21 (configuration not stated) | 146 to 148
25 | CN1CCC(c2nn(-c3ccncc3)c3ccccc23)CC1 | 205 to 207
26 | CC(COC(=O)CCSCCSCCC(=O)OCC(C)(Cc1cc(C(C)(C)C)c(O)c(C(C)(C)C)c1)Cc1cc(C(C)(C)C)c(O)c(C(C)(C)C)c1)(Cc1cc(C(C)(C)C)c(O)c(C(C)(C)C)c1)Cc1cc(C(C)(C)C)c(O)c(C(C)(C)C)c1 | 156 to 161
27 | CC(C)(C)OC(=O)CC[C@H](NC(=O)CNC(=O)[C@H](CSC(c1ccccc1)(c1ccccc1)c1ccccc1)NC(c1ccccc1)(c1ccccc1)c1ccccc1)C(=O)OC(C)(C)C | 98 to 110
28 | CC(C)CCCC(C)C1CCC2C3CC=C4CC(N(CCCNC(=O)CCNC(=O)CNC(=O)OCC5c6ccccc6-c6ccccc65)C(=O)OC(C)(C)C)CCC4(C)C3CCC12C (configuration not stated) | 112 to 114
29 | O=C(NCC(COC(C(F)(F)F)(C(F)(F)F)C(F)(F)F)(COC(C(F)(F)F)(C(F)(F)F)C(F)(F)F)C(=O)O)OCC1c2ccccc2-c2ccccc21 | 104 to 105
30 | CC(C)CC(NC(=O)OCc1ccccc1)C(=O)NC(C)C(=O)NC(CCCN(C(=N)NC(=O)OCc1ccccc1)C(=O)OCc1ccccc1)C(=O)Oc1cccc2ccccc12 (configuration not stated) | 179 to 183
31 | CC(C)Cn1c(C(O)c2ccc(Cl)cc2)nc2c(N)nc3ccccc3c21 (configuration not stated) | 140 to 145
32 | CC(C)(C)OC(=O)N(CNCCNC(=O)CCOCC(COCCC(=O)NCCNCN(C(=O)OC(C)(C)C)C(=O)OC(C)(C)C)(COCCC(=O)NCCNCN(C(=O)OC(C)(C)C)C(=O)OC(C)(C)C)NC(=O)OCc1ccccc1)C(=O)OC(C)(C)C | 86 to 88
33 | CP(C)CCP(C)C | 0
34 | COC(=O)CCc1ccc(N(c2ccc(-c3ccc(N(c4ccc(CCC(=O)OC)cc4)c4cccc5c4Cc4ccccc4-5)cc3)cc2)c2cccc3c2Cc2ccccc2-3)cc1 | 127 to 129
35 | CC(=O)N(CC(CO)(CO)CN(Oc1c(I)c(C(=O)N(CCO)CCO)c(I)c(C(=O)N(CCO)CCO)c1I)C(C)=O)Oc1c(I)c(C(=O)N(CCO)CCO)c(I)c(C(=O)N(CCO)CCO)c1I | 198
36 | Nc1ncc(Br)cc1[N+](=O)[O-] | 209
37 | CC(C)(O)CON1C(C)(C)CC(CCCCNc2nc(NCCCCC3CC(C)(C)N(OCC(C)(C)O)C(C)(C)C3)nc(NCCCCC3CC(C)(C)N(OCC(C)(C)O)C(C)(C)C3)n2)CC1(C)C | 172 to 176
38 | CC(C)(C)OC(=O)N1CCN(c2ccc(C(=O)O)cc2)CC1 | 195
39 | CCCCCCCCCS(=O)(=O)c1cc2c3cc(S(=O)(=O)CCCCCCCCC)c(S(=O)(=O)CCCCCCCCC)cc3c3cc(S(=O)(=O)CCCCCCCCC)c(S(=O)(=O)CCCCCCCCC)cc3c2cc1S(=O)(=O)CCCCCCCCC | 202
40 | CCCc1[nH]c2ccccc2c1C1(c2ccc(N(CC)CC)cc2OCCOCCOc2cc(N(CC)CC)ccc2C2(c3c(CCC)[nH]c4ccccc34)OC(=O)c3ccccc32)OC(=O)c2ccccc21 (configuration not stated) | 191 to 194
41 | CN=S(=O)(Cc1ccc(Cl)nc1)c1nc(-c2ccc(OC)cc2)cs1 (configuration not stated) | 160 to 163

Row | SMILES | melting point [°C]
42 | CCN(CC)CCN=S(=O)(c1ccccc1)c1cccs1 (configuration not stated) | 116
43 | NC(=O)c1cc(-c2ccccc2)c(=O)n2c1-c1sccc1CC2 | 281 to 282
44 | COC(=O)C(C)NC(=O)C(Cc1ccc(OCc2ccccc2)cc1)NC(=O)C(COCc1ccccc1)NC(=O)C(Cc1c[nH]c2ccccc12)NC(=O)C1CCCCC1 (configuration not stated) (Cyclohexanecarbonyl-WS(Bn)Y(Bn)A-OMe; configuration not given here) | 181 to 183
45 | Cc1c(SCCN2CCOCC2)ccnc1CSc1nc2ccccc2n1CC(=O)N(C)C | 178 to 180
46 | O=C1OC(=O)c2ccc3c4c(ccc1c24)C(=O)OC3=O | 300
47 | CCCCCCCCCCCCCCCCCCSCCOP(=O)(Cc1cc(C(C)(C)C)c(O)c(C)c1C)OCCSCCCCCCCCCCCCCCCCCC | 71 to 73
48 | CC(C)[C@H](NC(=O)N1CCN(c2ccccc2)CC1)C(=O)N[C@@H](Cc1ccccc1)[C@@H](O)[C@H](O)[C@H](Cc1ccccc1)NC(=O)[C@@H](NC(=O)N1CCN(c2ccccc2)CC1)C(C)C | 165 to 166
49 | CCCCCCCCCCCCCCCC(=O)C(O)C(O)(C(=O)c1cccc(NC(=O)C(CS)Cc2ccccc2)c1)C(O)C(=O)CCCCCCCCCCCCCCC (configuration not stated) | 66 to 68
50 | CCCCCc1nc(C)c(C(=O)OCC)n1Cc1ccc2oc(-c3ccccc3-c3nnn(C(c4ccccc4)(c4ccccc4)c4ccccc4)n3)c(Br)c2c1 | 89 to 90
51 | CCCCCCCCCCCCCCCCCC(=O)OCC(COC(=O)C(N)Cc1ccc(N(CCCl)CCCl)cc1)OC(=O)CCCCCCCCCCCCCCCCC (configuration not stated) | 82 to 83
52 | c1ccc(C2CN3CCSC3=N2)cc1 (configuration not stated) | 60 to 61.5
53 | IC(I)=C(I)CCOCCC(I)=C(I)I | 43.5 to 44.5
54 | CCC1(CC)c2cc(-c3nc4ccccc4s3)ccc2-c2ccc(N(c3ccc4c(c3)C(CC)(CC)c3cc(-c5nc6ccccc6s5)ccc3-4)C3CCCCC3)cc21 | 262 to 264
55 | CSc1ccccc1C(=O)Nc1ccc(C(=O)N2Cc3cccn3Cc3ccccc32)cc1 | 171 to 174
56 | CCCCCCCCCCCCOC(CCCCCCCCCCC)CCOC1C(NC(C)=O)C(OCC2OC(C(=O)O)C(NC(=O)CC(O)CCCCCCCCCCC)C(OCCC(O)CCCCCCCCCCC)C2O)OC(CO)C1OP(=O)(O)O (configuration not stated) | 179 to 181
57 | Cc1ccccc1CNC(=O)[C@H]1N(C(=O)[C@@H](O)[C@H](Cc2ccccc2)NC(=O)C(C)C(C)C(=O)OC[C@H]2O[C@@H](n3cc(C)c(=O)[nH]c3=O)CC2N=[N+]=[N-])CSC1(C)C (some centres not stated) | 116 to 118
58 | [C-]#[N+]CCC(O)COc1ccc(C(C)(C)C)cc1 (configuration not stated) | 69 to 72
59 | OCCOc1ccc(-c2ccc(OCCO)cc2)cc1 | 201 to 202
60 | CCCCCCCCCCC1(CCCCCCCCCC)c2cc(-c3ccc4c(c3)C(CC)(CC)c3cc(-c5nc6ccccc6s5)ccc3-4)ccc2-c2ccc(-c3ccc4c(c3)C(CC)(CC)c3cc(N(c5ccccc5)c5ccccc5)ccc3-4)cc21 | 228 to 229
61 | CCCCc1c(CC[Si](Cl)(Cl)Cl)c(CC[Si](Cl)(Cl)Cl)c(CC[Si](Cl)(Cl)Cl)c(CC[Si](Cl)(Cl)Cl)c1CC[Si](Cl)(Cl)Cl | 228 to 235
62 | Nc1n[nH]cc1C(=O)O | 135
